The supplement of paper PMC10307832

Key:
Assay in all cases: relative viability (nuclei count vs DMSO), 5 days (fraction); higher = more cells survive
CAL-12T = tested on: CAL-12T
Procedure, shortened: (§1)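 Relative viability equals treated-well nuclei counts divided by vehicle-well nuclei counts. Counts came from 4× images of lung cancer cell lines grown in 1536-well plates for 5 days after pin-tool dosing on the day after seeding. Dosing used one drug alone or a fixed anchor-drug dose plus five library-drug doses (not always all listed) in √10 steps, and values are medians of duplicate plates.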

ChaGo-K-1 = tested on: ChaGo-K-1
Procedure, shortened: as §1

EMC-BAC-2 = tested on: EMC-BAC-2
Procedure, shortened: as §1

HCC-366 = tested on: HCC-366
Procedure, shortened: as §1

HCC-78 = tested on: HCC-78
Procedure, shortened: as §1

HOP-62 = tested on: HOP-62
Procedure, shortened: as §1

LC-2-ad = tested on: LC-2-ad
Procedure, shortened: as §1

LK-2 = tested on: LK-2
Procedure, shortened: as §1

NCI-H1355 = tested on: NCI-H1355
Procedure, shortened: as §1

NCI-H1734 = tested on: NCI-H1734
Procedure, shortened: as §1

NCI-H1993 = tested on: NCI-H1993
Procedure, shortened: as §1

NCI-H2009 = tested on: NCI-H2009
Procedure, shortened: as §1

NCI-H2085 = tested on: NCI-H2085
Procedure, shortened: as §1

NCI-H2228 = tested on: NCI-H2228
Procedure, shortened: as §1

NCI-H2347 = tested on: NCI-H2347
Procedure, shortened: as §1

NCI-H2405 = tested on: NCI-H2405
Procedure, shortened: as §1

NCI-H3122 = tested on: NCI-H3122
Procedure, shortened: as §1

NCI-H596 = tested on: NCI-H596
Procedure, shortened: as §1

PC-14 = tested on: PC-14
Procedure, shortened: as §1

RERF-LC-KJ = tested on: RERF-LC-KJ
Procedure, shortened: as §1

SK-MES-1 = tested on: SK-MES-1
Procedure, shortened: as §1

SW 1573 = tested on: SW 1573
Procedure, shortened: as §1

SW 900 = tested on: SW 900
Procedure, shortened: as §1

`CCCCCCCCCCCC1=C(O)C(=O)C=C(O)C1=O` [Embelin] + Nc1nc2[nH]cc(CCc3ccc(C(=O)N[C@@H](CCC(=O)O)C(=O)O)cc3)c2c(=O)[nH]1 [Pemetrexed] (partner 0.2 µM) gave a relative viability (CAL-12T; first compound 0.08 µM) of 1.11, a relative viability (CAL-12T; first compound 0.8 µM) of 1.4 and a relative viability (CAL-12T; first compound 2.53 µM) of 1.1. The relative viability (CAL-12T; first compound 8 µM) was 1.06, the relative viability (ChaGo-K-1; first compound 0.08 µM) was 0.264 and the relative viability (ChaGo-K-1; first compound 0.8 µM) was 0.258. It also gave a relative viability (ChaGo-K-1; first compound 2.53 µM) of 0.249, a relative viability (ChaGo-K-1; first compound 8 µM) of 0.251 and a relative viability (EMC-BAC-2; first compound 0.08 µM) of 0.472. For the same compound, the relative viability (EMC-BAC-2; first compound 0.8 µM) was 0.53, the relative viability (EMC-BAC-2; first compound 2.53 µM) was 0.399 and the relative viability (EMC-BAC-2; first compound 8 µM) was 0.49. The relative viability (HCC-366; first compound 0.08 µM) was 0.161, the relative viability (HCC-366; first compound 0.8 µM) was 0.149 and the relative viability (HCC-366; first compound 2.53 µM) was 0.151. The relative viability (HCC-366; first compound 8 µM) was 0.236, the relative viability (HCC-78; first compound 0.08 µM) was 0.924 and the relative viability (HCC-78; first compound 0.8 µM) was 0.895. For the same compound, the relative viability (HCC-78; first compound 2.53 µM) was 0.982, the relative viability (HCC-78; first compound 8 µM) was 0.949 and the relative viability (HOP-62; first compound 0.08 µM) was 0.384. It also gave a relative viability (HOP-62; first compound 0.8 µM) of 0.365, a relative viability (HOP-62; first compound 2.53 µM) of 0.308 and a relative viability (HOP-62; first compound 8 µM) of 0.303. For the same compound, the relative viability (LC-2-ad; first compound 0.08 µM) was 0.274, the relative viability (LC-2-ad; first compound 0.8 µM) was 0.282 and the relative viability (LC-2-ad; first compound 2.53 µM) was 0.257. For the same compound, the relative viability (LC-2-ad; first compound 8 µM) was 0.288, the relative viability (LK-2; first compound 0.08 µM) was 0.335 and the relative viability (LK-2; first compound 0.8 µM) was 0.227. The relative viability (LK-2; first compound 2.53 µM) was 0.385, the relative viability (LK-2; first compound 8 µM) was 0.289 and the relative viability (NCI-H1355; first compound 0.08 µM) was 1.06. It also gave a relative viability (NCI-H1355; first compound 0.8 µM) of 1.13, a relative viability (NCI-H1355; first compound 2.53 µM) of 1.12 and a relative viability (NCI-H1355; first compound 8 µM) of 0.784. It also gave a relative viability (NCI-H1734; first compound 0.08 µM) of 0.434, a relative viability (NCI-H1734; first compound 0.8 µM) of 0.447 and a relative viability (NCI-H1734; first compound 2.53 µM) of 0.414. It also gave a relative viability (NCI-H1734; first compound 8 µM) of 0.401, a relative viability (NCI-H1993; first compound 0.08 µM) of 0.609 and a relative viability (NCI-H1993; first compound 0.8 µM) of 0.568. For the same compound, the relative viability (NCI-H1993; first compound 2.53 µM) was 0.581, the relative viability (NCI-H1993; first compound 8 µM) was 0.554 and the relative viability (NCI-H2009; first compound 0.08 µM) was 1.08. The relative viability (NCI-H2009; first compound 0.8 µM) was 1.09, the relative viability (NCI-H2009; first compound 2.53 µM) was 1.06 and the relative viability (NCI-H2009; first compound 8 µM) was 1.01. For the same compound, the relative viability (NCI-H2085; first compound 0.08 µM) was 0.854, the relative viability (NCI-H2085; first compound 0.8 µM) was 1.01 and the relative viability (NCI-H2085; first compound 2.53 µM) was 0.87. It also gave a relative viability (NCI-H2085; first compound 8 µM) of 0.871, a relative viability (NCI-H2228; first compound 0.08 µM) of 0.329 and a relative viability (NCI-H2228; first compound 0.8 µM) of 0.347. The relative viability (NCI-H2228; first compound 2.53 µM) was 0.345, the relative viability (NCI-H2228; first compound 8 µM) was 0.39 and the relative viability (NCI-H2347; first compound 0.08 µM) was 0.413. The relative viability (NCI-H2347; first compound 0.8 µM) was 0.482, the relative viability (NCI-H2347; first compound 2.53 µM) was 0.448 and the relative viability (NCI-H2347; first compound 8 µM) was 0.434. For the same compound, the relative viability (NCI-H2405; first compound 0.08 µM) was 1.09, the relative viability (NCI-H2405; first compound 0.8 µM) was 1.15 and the relative viability (NCI-H2405; first compound 2.53 µM) was 1.18. For the same compound, the relative viability (NCI-H2405; first compound 8 µM) was 0.818, the relative viability (NCI-H3122; first compound 0.08 µM) was 0.193 and the relative viability (NCI-H3122; first compound 0.8 µM) was 0.202. It also gave a relative viability (NCI-H3122; first compound 2.53 µM) of 0.202, a relative viability (NCI-H3122; first compound 8 µM) of 0.2 and a relative viability (NCI-H596; first compound 0.08 µM) of 0.478. For the same compound, the relative viability (NCI-H596; first compound 0.8 µM) was 0.507, the relative viability (NCI-H596; first compound 2.53 µM) was 0.53 and the relative viability (NCI-H596; first compound 8 µM) was 0.445. The relative viability (PC-14; first compound 0.08 µM) was 0.158, the relative viability (PC-14; first compound 0.8 µM) was 0.126 and the relative viability (PC-14; first compound 2.53 µM) was 0.134. For the same compound, the relative viability (PC-14; first compound 8 µM) was 0.153, the relative viability (RERF-LC-KJ; first compound 0.08 µM) was 0.502 and the relative viability (RERF-LC-KJ; first compound 0.8 µM) was 0.498. The relative viability (RERF-LC-KJ; first compound 2.53 µM) was 0.504, the relative viability (RERF-LC-KJ; first compound 8 µM) was 0.474 and the relative viability (SK-MES-1; first compound 0.08 µM) was 1.01. The relative viability (SK-MES-1; first compound 0.8 µM) was 1.05, the relative viability (SK-MES-1; first compound 2.53 µM) was 0.937 and the relative viability (SK-MES-1; first compound 8 µM) was 0.824. The relative viability (SW 1573; first compound 0.08 µM) was 0.92, the relative viability (SW 1573; first compound 0.8 µM) was 0.844 and the relative viability (SW 1573; first compound 2.53 µM) was 0.99. It also gave a relative viability (SW 1573; first compound 8 µM) of 0.931, a relative viability (SW 900; first compound 0.08 µM) of 0.495 and a relative viability (SW 900; first compound 0.8 µM) of 0.527. For the same compound, the relative viability (SW 900; first compound 2.53 µM) was 0.52 and the relative viability (SW 900; first compound 8 µM) was 0.473.
